Calls of active or inactive are those of the source. The calls are words filed in the database; no cut-off is given here.
Key:
[1] = Permeability across human Caco-2 cell membrane at 20 uM; format: ADME, cell-based; conditions: read-out: permeability
[2] = Clearance in 129/SvEvBrd x C57BL/6 hybrid mouse at 1 mg/kg, iv; format: ADME, organism-based; design: dose 1 mg/kg, route intravenous; conditions: in vivo
[3] = test system: Mus musculus; assay: Induction of lymphopenia in 129/SvEvBrd x C57BL/6 hybrid mouse assessed as change in circulating lymphocyte level at 100 mg/kg, po administered as single dose after 18 hrs by complete blood count analysis relative to control; format: functional
[4] = Half life in 129/SvEvBrd x C57BL/6 hybrid mouse; format: ADME, organism-based; conditions: in vivo
[5] = (§1) AUC (0 to infinity) in 129/SvEvBrd x C57BL/6 hybrid mouse at 10 mg/kg, po; format: ADME, organism-based, Plasma; design: time infinity, dose 10 mg/kg, route oral; conditions: 129/SvEvBrd x C57BL/6 hybrid, plasma
[6] = (§2) Oral bioavailability in 129/SvEvBrd x C57BL/6 hybrid mouse at 1 mg/kg, iv and 10 mg/kg, po; format: ADME, organism-based; conditions: 129/SvEvBrd x C57BL/6 hybrid, in vivo
[7] = test system: Mus musculus; assay: as §1; format: ADME, organism-based, Plasma; design: time infinity, dose 10 mg/kg, route oral; conditions: in vivo
[8] = test system: Mus musculus; assay: as §2; format: ADME, organism-based; conditions: in vivo
[9] = test system: Mus musculus; assay: Induction of lymphopenia in 129/SvEvBrd x C57BL/6 hybrid mouse assessed as change in circulating lymphocyte level at 30 mg/kg, po administered as single dose after 18 hrs by complete blood count analysis relative to control; format: functional
[10] = Bioavailability in 129/SvEvBrd x C57BL/6 hybrid mouse at 10 mg/kg; format: ADME, organism-based; conditions: in vivo
[11] = AUC in 129/SvEvBrd x C57BL/6 hybrid mouse at 10 mg/kg; format: ADME, organism-based; design: dose 10 mg/kg; conditions: plasma
[12] = test system: Mus musculus; assay: Induction of lymphopenia in 129/SvEvBrd x C57BL/6 hybrid mouse whole blood assessed as reduction in lymphocyte level at 100 mg/kg, po after 4 hrs by complete blood count analysis; format: functional, organism-based; design: dose 100 mg/kg
[13] = test system: Mus musculus; assay: Induction of lymphopenia in 129/SvEvBrd x C57BL/6 hybrid mouse whole blood assessed as reduction in lymphocyte level at 100 mg/kg, po after 18 hrs by complete blood count analysis; format: functional, organism-based; design: dose 100 mg/kg
[14] = Cmax in 129/SvEvBrd x C57BL/6 hybrid mouse at 10 mg/kg; format: ADME, organism-based; design: dose 10 mg/kg; conditions: in vivo
[15] = Protein binding in 129/SvEvBrd x C57BL/6 hybrid mouse plasma at 10 mg/kg; format: ADME, organism-based; design: dose 10 mg/kg; conditions: read-out: PPB
[16] = target: T1, Sphingosine-1-phosphate lyase 1 (Mus musculus, UniProt Q8R0X7); assay: Inhibition of sphingosine-1-phosphate lyase in mouse spleen by scintillation counting; format: tissue-based
T1 sequence (Q8R0X7 whole entry): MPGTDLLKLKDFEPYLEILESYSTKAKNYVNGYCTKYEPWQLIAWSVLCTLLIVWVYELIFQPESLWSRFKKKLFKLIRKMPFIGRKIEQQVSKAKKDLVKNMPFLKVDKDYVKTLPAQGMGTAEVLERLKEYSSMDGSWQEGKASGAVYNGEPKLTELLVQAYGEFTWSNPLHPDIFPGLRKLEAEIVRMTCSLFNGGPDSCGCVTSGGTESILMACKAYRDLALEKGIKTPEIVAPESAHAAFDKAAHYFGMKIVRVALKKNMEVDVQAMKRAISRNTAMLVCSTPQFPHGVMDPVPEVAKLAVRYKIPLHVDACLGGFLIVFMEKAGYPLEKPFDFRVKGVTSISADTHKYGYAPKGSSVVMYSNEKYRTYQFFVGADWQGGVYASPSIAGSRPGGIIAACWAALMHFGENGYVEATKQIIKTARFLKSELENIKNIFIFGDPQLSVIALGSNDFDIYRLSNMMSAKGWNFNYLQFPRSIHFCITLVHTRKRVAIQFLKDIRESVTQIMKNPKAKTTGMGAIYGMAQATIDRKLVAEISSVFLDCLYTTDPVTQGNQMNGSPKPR

[17] = test system: HepG2; assay: Increase in sphingosine-1-phosphate level in human HepG2 cells relative to control; format: functional
[18] = test system: Mus musculus; assay: Induction of lymphopenia in ip dosed 129/SvEvBrd x C57BL/6 hybrid mouse whole blood assessed as reduction in lymphocyte level by complete blood count analysis after 4 hrs; format: functional, organism-based
[19] = target: T2, Sphingosine-1-phosphate lyase 1 (Mus musculus) (UniProt Q8R0X7); assay: Inhibition of sphingosine-1-phosphate lyase in mouse spleen assessed as production of [33P]phosphoethanolamine; format: tissue-based
T2 sequence (whole entry): T1 sequence (Q8R0X7 whole entry)

[20] = Cmax in 129/SvEvBrd x C57BL/6 hybrid mouse at 100 mg/kg, po; format: ADME, organism-based; design: dose 100 mg/kg, route oral; conditions: in vivo
[21] = AUC in 129/SvEvBrd x C57BL/6 hybrid mouse at 100 mg/kg, po; format: ADME, organism-based; design: dose 100 mg/kg, route oral; conditions: plasma
[22] = Cmax in 129/SvEvBrd x C57BL/6 hybrid mouse; format: ADME, organism-based; conditions: in vivo
[23] = Tmax in 129/SvEvBrd x C57BL/6 hybrid mouse; format: ADME, organism-based; conditions: in vivo
[24] = test system: Mus musculus; assay: Reduction in sphingosine-1-phosphate lyase activity in mouse spleen at 100 mg/kg, po after 18 hrs by radioreceptor binding assay; format: functional, organism-based; design: dose 100 mg/kg
[25] = Volume of distribution in 129/SvEvBrd x C57BL/6 hybrid mouse; format: ADME, organism-based; conditions: in vivo
[26] = test system: Mus musculus; assay: Increase in sphingosine-1-phosphate level in mouse spleen at 100 mg/kg, po after 18 hrs by radioreceptor binding assay relative to control; format: functional

Papp at 20 µM [1] [×10⁻⁶ cm/s] | clearance [2] [mL/min/kg] | half-life [4] [h] | AUC(0-inf) [5] [µM·h] | bioavailability [6] [%] | Compound | Activity [3] [%] | also measured
5.57 | 5.7 | 2.4 | 41.1 | 33.6 | CC(=O)c1nc([C@@H](O)[C@H](O)[C@H](O)CO)cn1C | 10 | –
9.9 | 18.8 | 5.4 | 15.7 | 25 | CC(=O)c1nc([C@@H](O)[C@@H](O)[C@H](O)CO)c[nH]1 | -31 | –
13.9 | – | 0.9 | – | – | CC(=O)c1ncc([C@@H](O)[C@H](O)[C@H](O)CO)s1 | 25 | AUC [7]: 2.7 µM·h; F [8]: 65%
19.8 | 13.4 | 1.9 | 4.7 | 10 | OC[C@@H](O)[C@@H](O)[C@H](O)c1c[nH]c(-c2cnccn2)n1 | -6 | –
10.3 | 11.7 | 3.5 | 0.2 | 1 | CC(=O)c1nc([C@@H](O)[C@H](O)[C@H](O)C(=O)N(C)C)c[nH]1 | -15 | –
– | – | 1.7 | – | – | OC[C@@H](O)[C@@H](O)[C@H](O)c1c[nH]c(C(F)(F)C(F)(F)F)n1 | – | Activity [9]: -11%; AUC [7]: 10 µM·h; F [8]: 31%
4.9 | – | – | – | – | Cc1scnc1-c1nc([C@@H](O)[C@H](O)[C@H](O)CO)c[nH]1 | -7 | –
– | – | – | – | – | Nc1nc(N2CCCCC2)nc2c1c(=O)c(C(=O)NCc1ccc(-n3ccnc3)cc1)cn2CC1CCCO1 (stereo not drawn) | – | bioavailability [10]: 100%; AUC [11]: 1870 µM·h; Activity [12]: Non-toxic; Activity [13]: Non-toxic; Cmax [14]: 451 µM; fraction unbound [15]: < 0.01; IC50 [16]: 2100 nM
7.93 | 17.3 | 2.8 | 6.4 | 17.1 | CCc1[nH]c(C(C)=O)nc1[C@@H](O)[C@H](O)[C@H](O)CO | 8 | –
– | – | – | – | – | CCCCCCCCCCCC/C=C/C[C@@H](O)[C@H](CO)NCc1c(CO)cnc(C)c1O | – | Activity [17]: 275%; Activity [18]: Non-toxic; Activity [19]: inactive; Cmax [20]: < 1 µM; AUC [21]: < 1 µM·h
11 | 2.9 | 4.5 | 35.8 | 14 | CC(=O)c1nc([C@@H](O)[C@H](O)[C@H](O)CO)c[nH]1 | -41 | Cmax [22]: 24.9 µM; Activity [9]: -25%; Tmax [23]: 0.5 h; Activity [24]: Active; Vd [25]: 0.067 L/kg; fold change (FC) [26]: 22
5.1 | 16.4 | 2.4 | 1.7 | 6 | OC[C@@H](O)[C@@H](O)[C@H](O)c1c[nH]c(-c2ncn(Cc3ccccc3)n2)n1 | -41 | –
10.9 | 15.2 | 2.4 | 3 | 7 | OC[C@@H](O)[C@@H](O)[C@H](O)c1c[nH]c(-c2ncccn2)n1 | -26 | –
13.1 | 6.7 | 6 | 18 | 17 | CC(=O)c1nc([C@H](O)[C@@H](O)[C@@H](O)CO)c[nH]1 | 0 | –
4.1 | – | 4.4 | – | – | CC(O)c1nc([C@@H](O)[C@H](O)[C@H](O)CO)c[nH]1 (stereo partly drawn) | -15 | AUC [7]: 44.5 µM·h; F [8]: 22%
